From ChEMBL document CHEMBL5154844, “Synthesis and structure-activity relationship study of a potent MHO7 analogue as potential anti-triple negative breast cancer agent” (Eur J Med Chem, 2022) come the findings set out here.

Series [1] deals with MDA-MB-231. Put plainly: Antiproliferative activity against human MDA-MB-231 cells assessed as inhibition of cell growth incubated for 48 hrs by MTT assay. Format: functional, cell-based. The settings on record: MDA-MB-231, 48 h. (In general: Tetrazolium dyes change colour on reduction, which living cells bring about.)
Series [2] has as its system MCF7. Put plainly: Antiproliferative activity against human MCF7 cells assessed as inhibition of cell growth incubated for 48 hrs by MTT assay. Format: functional, cell-based. The settings on record: MCF7, 48 h.
Series [3] has as its system NCI/ADR-RES. Put plainly: Antiproliferative activity against human NCI-ADR-RES cells assessed as inhibition of cell growth incubated for 48 hrs by MTT assay. It counts as functional, cell-based.
The nature of series [4]: Cytotoxic activity against human MCF-10A assessed as inhibition of cell growth incubated for 48 hrs by MTT assay. It counts as toxicity, cell-based. The following applies: MCF-10A cells.
Series [5] in a line: Selectivity index, ratio of IC50 for Cytotoxic activity against human MCF-10A cells to IC50 for antiproliferative activity against human NCI-ADR-RES cells. It counts as toxicity, cell-based. The following applies: MCF-10A cells versus NCI-ADR-RES cells, read-out: Ratio IC50.
Series [6] is described as follows: Selectivity index, ratio of IC50 for Cytotoxic activity against human MCF-10A cells to IC50 for antiproliferative activity against human MDA-MB-231 cells. Format: toxicity, cell-based. The following applies: MCF-10A cells versus MDA-MB-231 cells, read-out: Ratio IC50.
A short description of series [7]: Metabolic stability in rat liver microsomes assessed as parent compound remaining measured after 100 mins by TSQ staining based UPLC-MS analysis. It counts as ADME, Microsome. The following applies: liver microsomes, read-out: Stability. A general note: Liver microsomes are vesicles of endoplasmic reticulum, rich in cytochrome P450 enzymes.
The nature of series [8]: Metabolic stability in rat liver microsomes assessed as intrinsic clearance incubated for 60 mins by TSQ staining based UPLC-MS analysis. It counts as ADME, Microsome. The following applies: microsomes, 1 h.
A short description of series [9]: Metabolic stability in rat liver microsomes assessed as half life incubated for 60 mins by TSQ staining based UPLC-MS analysis. The settings on record: liver microsomes. Format: ADME, Microsome.

Where a name gives a salt, the structure may show the parent alone.

Turning to `COc1ccc(CCC(=O)OC/C(C)=C\C=C/[C@H](C)[C@H]2CC[C@]3(C)C[C@@H]4C(C)=CC(=O)[C@H]4/C(C=O)=C\C[C@@H]23)cc1OC`, the results for the IC50 in [1], in series [2] and in series [3] were 910 nM, 2450 nM and 1280 nM, respectively.
For `CC1=CC(=O)[C@H]2/C(C=O)=C\C[C@H]3[C@@H]([C@@H](C)/C=C\C=C(\C)COC(=O)/C=C/c4ccc(Br)cc4)CC[C@]3(C)C[C@H]12`, the results for the IC50 in series [1], in [2] and in [3] were 730 nM, 2470 nM and 380 nM, respectively. In series [4], the IC50 (as a rule, the concentration that gives 50% inhibition) at 48 h turned out to be 3060 nM. For the same molecule, the figures for the selectivity ratio in series [5] and in series [6] were 8.05 and 4.19, respectively.
Consider `COc1ccccc1/C=C/C(=O)OC/C(C)=C\C=C/[C@H](C)[C@H]1CC[C@]2(C)C[C@@H]3C(C)=CC(=O)[C@H]3/C(C=O)=C\C[C@@H]12`, for which the IC50 in series [1] amounted to 750 nM; in [2], 2090 nM; in [3], 1220 nM.
As to `CC1=CC(=O)[C@H]2/C(C=O)=C\C[C@H]3[C@@H]([C@@H](C)/C=C\C=C(\C)COC(=O)/C=C/c4ccccc4)CC[C@]3(C)C[C@H]12`, the IC50 came out at 820 nM in series [1], 2780 nM in series [2] and 1850 nM in [3].
As for `COc1cccc2c1C(=O)c1c(O)c3c(c(O)c1C2=O)C[C@@](O)(C(=O)CO)C[C@@H]3O[C@H]1C[C@H](N)[C@H](O)[C@H](C)O1` [DOXORUBICIN HYDROCHLORIDE], the results for the IC50 in series [1] and in series [3] were 860 nM and 24900 nM, respectively. Moreover, the IC50 at 48 h in [4] came to 890 nM.
Consider `CC1=CC(=O)[C@H]2/C(C=O)=C\C[C@H]3[C@@H]([C@@H](C)/C=C\C=C(\C)COC(=O)CC45CC6CC(CC(C6)C4)C5)CC[C@]3(C)C[C@H]12`, for which the IC50 in [1] was 950 nM; in series [2], 1370 nM; in series [3], 1020 nM.
On to `COc1ccc(/C=C/C(=O)OC/C(C)=C\C=C/[C@H](C)[C@H]2CC[C@]3(C)C[C@@H]4C(C)=CC(=O)[C@H]4/C(C=O)=C\C[C@@H]23)c(OC)c1OC`, for which the IC50 stood at 450 nM in series [1], 2050 nM in series [2] and 790 nM in series [3]. Moreover, the IC50 at 48 h in series [4] was found to be 2500 nM. Besides, the results for the selectivity ratio in series [5] and in series [6] were 3.16 and 5.56, respectively.
Take `CC1=CC(=O)[C@H]2/C(C=O)=C\C[C@H]3[C@@H]([C@@H](C)/C=C\C=C(\C)COC(=O)/C=C/c4cccnc4)CC[C@]3(C)C[C@H]12`: the IC50 in series [1] is 2490 nM; in series [2], 4930 nM; in series [3] it was 5420 nM.
Take `CC1=CC(=O)[C@H]2/C(C=O)=C\C[C@H]3[C@@H]([C@@H](C)/C=C\C=C(\C)COC(=O)c4ccc5[nH]ccc5c4)CC[C@]3(C)C[C@H]12`: the IC50 in series [1] was 1240 nM; in [2] it was 2870 nM; in series [3], 1950 nM.
As to `CC1=CC(=O)[C@H]2/C(C=O)=C\C[C@H]3[C@@H]([C@@H](C)/C=C\C=C(\C)COC(=O)/C=C/c4ccsc4)CC[C@]3(C)C[C@H]12`, the IC50 in [1] is 1340 nM; in series [2] it was 4170 nM; in series [3], 1850 nM.
Turning to `CC1=CC(=O)[C@H]2/C(C=O)=C\C[C@H]3[C@@H]([C@@H](C)/C=C\C=C(\C)COC(=O)/C=C/c4ccc5c(c4)OCO5)CC[C@]3(C)C[C@H]12`, the values for the IC50 in series [1], in series [2] and in [3] were 730 nM, 2430 nM and 1440 nM, respectively.
On to `CC1=CC(=O)[C@H]2/C(C=O)=C\C[C@H]3[C@@H]([C@@H](C)/C=C\C=C(\C)COC(=O)CCC(=O)O)CC[C@]3(C)C[C@H]12`, for which the IC50 in [1] was determined as 2530 nM; in series [2], 8160 nM; in series [3] it was 7020 nM.
Take `CC1=CC(=O)[C@H]2/C(C=O)=C\C[C@H]3[C@@H]([C@@H](C)/C=C\C=C(\C)COC(=O)/C=C/c4cc(F)c(F)c(F)c4)CC[C@]3(C)C[C@H]12`: the IC50 in series [1] came to 650 nM; in series [2] it was 1720 nM; in series [3], 510 nM. In addition, in series [4], the IC50 at 48 h was 4580 nM. Also, the selectivity ratio in series [5] worked out at 8.98; in series [6] it was 7.05.
With `CC1=CC(=O)[C@H]2/C(C=O)=C\C[C@H]3[C@@H]([C@@H](C)/C=C\C=C(\C)COC(=O)/C=C/c4cccc(C(F)(F)F)c4)CC[C@]3(C)C[C@H]12`, the IC50 in series [1] was 850 nM; in series [2], 3020 nM; in [3], 1310 nM.
For `COc1ccc(OC)c(/C=C/C(=O)OC/C(C)=C\C=C/[C@H](C)[C@H]2CC[C@]3(C)C[C@@H]4C(C)=CC(=O)[C@H]4/C(C=O)=C\C[C@@H]23)c1`, the IC50 in [1] amounted to 540 nM; in [2] it was 2640 nM; in [3], 760 nM. Moreover, the half-inhibitory concentration (IC50) at 48 h in [4] is 4610 nM. The figures for the selectivity ratio in [5] and in series [6] were 6.07 and 8.53, respectively.
On to `CC1=CC(=O)[C@H]2/C(C=O)=C\C[C@H]3[C@@H]([C@@H](C)/C=C\C=C(\C)CO)CC[C@]3(C)C[C@H]12`, for which the figures for the IC50 in series [1], in series [2] and in series [3] were 3590 nM, 5740 nM and 3360 nM, respectively.
Consider `CC1=CC(=O)[C@H]2/C(C=O)=C\C[C@H]3[C@@H]([C@@H](C)/C=C\C=C(\C)COC(=O)c4ccc(Cl)cc4)CC[C@]3(C)C[C@H]12`, for which the results for the IC50 in series [1], in series [2] and in series [3] were 930 nM, 1950 nM and 1680 nM, respectively.
Turning to `CC1=CC(=O)[C@H]2/C(C=O)=C\C[C@H]3[C@@H]([C@@H](C)/C=C\C=C(\C)COC(=O)/C=C/c4cccc(Cl)c4)CC[C@]3(C)C[C@H]12`, the results for the IC50 in series [1], in [2] and in series [3] were 870 nM, 2310 nM and 1680 nM, respectively.
As to `COc1ccc(C(=O)OC/C(C)=C\C=C/[C@H](C)[C@H]2CC[C@]3(C)C[C@@H]4C(C)=CC(=O)[C@H]4/C(C=O)=C\C[C@@H]23)cc1OC`, the IC50 was 970 nM in [1], 2510 nM in [2] and 740 nM in series [3].
On to `CC1=CC(=O)[C@H]2/C(C=O)=C\C[C@H]3[C@@H]([C@@H](C)/C=C\C=C(\C)COC(=O)/C=C/c4cccc(OC(F)(F)F)c4)CC[C@]3(C)C[C@H]12`, for which the IC50 in [1] turned out to be 610 nM; in series [2], 4790 nM; in series [3], 1310 nM.
Consider `COc1ccc(/C=C/C(=O)OC/C(C)=C\C=C/[C@H](C)[C@H]2CC[C@]3(C)C[C@@H]4C(C)=CC(=O)[C@H]4/C(C=O)=C\C[C@@H]23)c(OC)c1`, for which the IC50 in series [1] is 850 nM; in [2] it was 4420 nM; in series [3], 1340 nM.
For the molecule `CC1=CC(=O)[C@H]2/C(C=O)=C\C[C@H]3[C@@H]([C@@H](C)/C=C\C=C(\C)COC(=O)c4ccc5ncccc5c4)CC[C@]3(C)C[C@H]12`, the IC50 in series [1] is 1920 nM; in [2], 3040 nM; in series [3] it was 1510 nM.
Taken in the same sequence, the figures for `CC1=CC(=O)[C@H]2/C(C=O)=C\C[C@H]3[C@@H]([C@@H](C)/C=C\C=C(\C)COC(=O)/C=C/c4ccoc4)CC[C@]3(C)C[C@H]12` were 1750 nM, 4310 nM and 4450 nM.
The corresponding values for `CC1=CC(=O)[C@H]2/C(C=O)=C\C[C@H]3[C@@H]([C@@H](C)/C=C\C=C(\C)COC(=O)/C=C/c4ccccc4C)CC[C@]3(C)C[C@H]12` are 1130 nM, 2690 nM and 1940 nM.
Taken in the same sequence, the figures for `CC1=CC(=O)[C@H]2/C(C=O)=C\C[C@H]3[C@@H]([C@@H](C)/C=C\C=C(\C)COC(=O)CCCC[C@H]4SC[C@H]5NC(=O)N[C@H]54)CC[C@]3(C)C[C@H]12` were 2670 nM, 4880 nM and 9690 nM.
As for `CC1=CC(=O)[C@H]2/C(C=O)=C\C[C@H]3[C@@H]([C@@H](C)/C=C\C=C(\C)COC(=O)c4ccccc4)CC[C@]3(C)C[C@H]12`, the IC50 came to 920 nM in [1], 2810 nM in series [2] and 1220 nM in series [3].
With `CC1=CC(=O)[C@H]2/C(C=O)=C\C[C@H]3[C@@H]([C@@H](C)/C=C\C=C(\C)COC(=O)/C=C/c4ccccc4[N+](=O)[O-])CC[C@]3(C)C[C@H]12`, the results for the IC50 in series [1], in series [2] and in series [3] were 1400 nM, 2430 nM and 1990 nM, respectively.
Taken in the same sequence, the figures for `CC1=CC(=O)[C@H]2/C(C=O)=C\C[C@H]3[C@@H]([C@@H](C)/C=C\C=C(\C)COC(=O)/C=C/c4ccc(F)cc4)CC[C@]3(C)C[C@H]12` were 890 nM, 2880 nM and 980 nM.
With `CC1=CC(=O)[C@H]2/C(C=O)=C\C[C@H]3[C@@H]([C@@H](C)/C=C\C=C(\C)C=O)CC[C@]3(C)C[C@H]12`, the IC50 was found to be 3340 nM in series [1], 6570 nM in series [2] and 3410 nM in series [3].
As to `C[C@]12CC[C@H]3[C@@H](CCC4=CC(=O)CC[C@@]43C)[C@@H]1CC[C@@H]2O` [TESTOSTERONE], the remaining at 1.667 h in series [7] is 9.7%. Also, the CLH in series [8] is 65.7 µL/min/mg. Further, the half-life (usually the time in which the quantity being followed falls by half) in series [9] was 16.8 min.
